Results: PMC11638627 (Current Research in Microbial Sciences, 2024)

Test system: chitin deacetylase (CDA)
Assay: p-nitroaniline release, absorbance at […] nm
Type: biochemical, Aneurinibacillus aneurinilyticus
Settings: 50 mM phosphate buffer pH 7.4, 37 °C; partially purified enzyme with two bands

Km: 98.5 µM
Compound: CC(=O)Nc1ccc([N+](=O)[O-])cc1 [p-nitroacetanilide]
